Results reported in publication PMC5746282, “Polypyridylruthenium(II) complexes exert anti-schistosome activity and inhibit parasite acetylcholinesterases” (PLoS Neglected Tropical Diseases, 2017).
Read-outs that look alike come from different tables or passages of the source.

Legend:
[1] = tested on: human bile duct cell line H69; test: MTT cytotoxicity assay; type: cell-based; conditions: 0.1 μM, 72 h
[2] = tested on: nucleotide pyrophosphatase-phosphodiesterase 5 (SmNPP-5); type: biochemical, S. mansoni; conditions: 10 µM
[3] = biological target: acetylcholinesterase (AChE); type: biochemical, S. mansoni
[4] = tested on: acetylcholinesterase (AChE); type: biochemical, S. mansoni; conditions: 1 µM
[5] = tested on: alkaline phosphatase (AP); type: biochemical, S. mansoni; conditions: 10 µM
[6] = biological target: acetylcholinesterase (AChE); type: biochemical, S. haematobium

Molecule	cells killed [1] [%]	SmNPP-5 Inhibition (%) [2] [%]	IC50 [3] [µM]	AChE Inhibition (%) ([3]; 1 µM)	AChE Inhibition (%) [4] [%]	AP Inhibition (%) [5] [%]	IC50 [6] [µM]	AChE Inhibition (%) ([6]; 1 µM)
COP(=O)(OC)OC=C(Cl)Cl [Dichlorvos, dichlorvos]	100	–	–	–	–	–	–	–
[Ru(phen)2(Me2bpy)]^2+	–	2	67 ± 11.6	9.3 ± 1.8	66.5 ± 5.8	3	90.2 ± 1.2	13.3 ± 1.8
